One data set addresses T1, hGLP1R (Homo sapiens, UniProt P43220).
T1 construct: expressed in transfected cells; host or cells: HEK-293 CRE-luciferase reporter cells
Briefly: hGLP1R CreLuc assay in 0.5% and 100% plasma (HEK-293 CRE-luciferase reporter cells). Type of data set: cell-based. The note with it: HEK-293 reporter cells. On the technique in general: A reporter such as luciferase makes a cellular process visible.

The target in the next data set is T2, hGIPR (Homo sapiens, UniProt P48546).
T2 construct: expressed in transfected cells; host or cells: CHO CRE-luciferase reporter cells
T2 sequence (P48546 22-466): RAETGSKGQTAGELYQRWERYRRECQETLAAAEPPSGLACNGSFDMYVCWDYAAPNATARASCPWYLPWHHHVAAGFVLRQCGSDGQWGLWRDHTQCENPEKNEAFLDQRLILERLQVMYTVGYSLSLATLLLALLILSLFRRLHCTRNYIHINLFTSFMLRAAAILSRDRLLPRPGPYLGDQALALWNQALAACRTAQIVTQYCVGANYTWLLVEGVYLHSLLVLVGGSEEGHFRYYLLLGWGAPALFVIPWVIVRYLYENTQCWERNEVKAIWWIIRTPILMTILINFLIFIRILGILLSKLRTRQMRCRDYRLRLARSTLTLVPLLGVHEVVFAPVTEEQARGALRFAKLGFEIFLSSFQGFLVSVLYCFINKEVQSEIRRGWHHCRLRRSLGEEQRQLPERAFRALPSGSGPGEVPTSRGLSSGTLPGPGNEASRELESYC
Briefly: hGIPR CreLuc assay in 0.5% and 100% plasma (CHO CRE-luciferase reporter cells). The note with it: 0.5% human plasma, read-out: hGIPR 0.5% hP. In kind it is cell-based.

A short description of data set [1]: Solubility in 0.1 M phosphate buffer at pH 7. In kind it is physicochemical. Particulars: 0.1 M phosphate buffer at pH 7, 10 mg/mL final peptide concentration, shaking 2 hours at room temperature, peptides as TFA-salts; measured sample pH 6.5-7.0.
Where [2] appears, read: 100% human plasma, read-out: hGLP1R 100% hP.

From patent US20250382344A1, “Soluble GLP1/GIP/NPY2 Receptor Triple Agonists” (Boehringer Ingelheim International GmH, priority 2024, published 2025) come the findings set out here.

The structures appear in SMILES notation. Like-named read-outs stand apart in the source and are kept apart here.

T1 sequence (P43220 24-463): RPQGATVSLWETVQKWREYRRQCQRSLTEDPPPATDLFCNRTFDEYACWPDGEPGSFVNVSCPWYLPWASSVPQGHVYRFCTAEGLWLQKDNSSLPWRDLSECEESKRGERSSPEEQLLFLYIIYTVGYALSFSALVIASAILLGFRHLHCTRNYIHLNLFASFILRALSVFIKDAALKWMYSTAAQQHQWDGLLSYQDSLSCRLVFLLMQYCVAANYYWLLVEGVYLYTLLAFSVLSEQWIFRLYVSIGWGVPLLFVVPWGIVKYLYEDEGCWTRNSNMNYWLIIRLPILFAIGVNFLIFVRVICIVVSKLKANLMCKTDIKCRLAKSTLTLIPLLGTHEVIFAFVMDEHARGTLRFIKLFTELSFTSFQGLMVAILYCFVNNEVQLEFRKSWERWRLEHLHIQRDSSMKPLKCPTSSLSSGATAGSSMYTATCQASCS

In the case of `CC[C@H](C)[C@H](NC(=O)[C@H](CC(C)C)NC(=O)[C@H](Cc1c[nH]cn1)NC(=O)[C@H](CCCNC(=N)N)NC(=O)[C@@H](NC(=O)[C@H](Cc1ccccc1)NC(=O)[C@H](C)NC(=O)C(C)(C)NC(=O)[C@H](CCC(N)=O)NC(=O)[C@H](C)NC(=O)[C@H](CCC(=O)O)NC(=O)[C@H](CCC(=O)O)NC(=O)[C@H](CCC(=O)O)NC(=O)[C@H](CC(C)C)NC(=O)C(C)(C)NC(=O)[C@@H](NC(=O)[C@H](CO)NC(=O)[C@H](Cc1ccc(O)cc1)NC(=O)[C@H](CC(=O)O)NC(=O)[C@H](CO)NC(=O)[C@@H](NC(=O)[C@H](Cc1ccccc1)NC(=O)[C@@H](NC(=O)CNC(=O)[C@H](CCC(=O)O)NC(=O)C(C)(C)NC(=O)[C@@H](N)Cc1ccc(O)cc1)[C@@H](C)O)[C@@H](C)O)[C@@H](C)CC)C(C)C)C(=O)N[C@@H](CC(N)=O)C(=O)N[C@@H](CCCCNC(=O)CC[C@H](NC(=O)CC[C@H](NC(=O)CC[C@H](NC(=O)CC[C@H](NC(=O)CCCCCCCCCCCCCCCCC(=O)O)C(=O)O)C(=O)O)C(=O)O)C(=O)O)C(=O)NC(C)(C)C(=O)N[C@H](C(=O)N[C@@H](CCCNC(=N)N)C(=O)N[C@@H](CCC(N)=O)C(=O)N[C@@H](CCCNC(=N)N)C(=O)N[C@@H](Cc1ccc(O)cc1)C(N)=O)[C@@H](C)O` [Compound 25, Y-Aib-E-G-T-F-T-S-D-Y-S-I-Aib-L-E-E-E-A-Q-Aib-A-F-V-R-H-L-I-N-K(1,3)-Aib-T-R-Q-R-Y-NH2.C18DA-gGlu-gGlu-gGlu-gGlu(1,2)], the EC50 amounted to 0.7 nM at hGLP1R (0.5% human plasma, read-out: hGLP1R 0.5% hP); 2 nM at hGLP1R (setting [2]); 0.4 nM at hGIPR. Further, the solubility at 2 h in data set [1] was 4800 µg/mL.
For `CC[C@H](C)[C@H](NC(=O)[C@H](CC(C)C)NC(=O)[C@H](Cc1c[nH]cn1)NC(=O)[C@H](CCCNC(=N)N)NC(=O)[C@@H](NC(=O)[C@H](Cc1ccccc1)NC(=O)[C@H](CCC(=O)O)NC(=O)C(C)(C)NC(=O)[C@H](CCC(N)=O)NC(=O)[C@H](C)NC(=O)[C@H](CCC(N)=O)NC(=O)[C@H](CCCCN)NC(=O)[C@H](CCC(=O)O)NC(=O)[C@H](CC(C)C)NC(=O)C(C)(C)NC(=O)[C@@H](NC(=O)[C@H](CO)NC(=O)[C@H](Cc1ccc(O)cc1)NC(=O)[C@H](CC(=O)O)NC(=O)[C@H](CO)NC(=O)[C@@H](NC(=O)[C@H](Cc1ccccc1)NC(=O)[C@@H](NC(=O)CNC(=O)[C@H](CCC(=O)O)NC(=O)C(C)(C)NC(=O)[C@@H](N)Cc1ccc(O)cc1)[C@@H](C)O)[C@@H](C)O)[C@@H](C)CC)C(C)C)C(=O)N[C@@H](CC(N)=O)C(=O)N[C@@H](CCCCNC(=O)[C@@H](N)CCCCNC(=O)CC[C@H](NC(=O)CC[C@H](NC(=O)CC[C@H](NC(=O)CC[C@H](NC(=O)CC[C@H](NC(=O)CC[C@H](NC(=O)CC[C@H](NC(=O)CCCCCCCCCCCCCCCCC(=O)O)C(=O)O)C(=O)O)C(=O)O)C(=O)O)C(=O)O)C(=O)O)C(=O)O)C(=O)NC(C)(C)C(=O)N[C@H](C(=O)N[C@@H](CCCNC(=N)N)C(=O)N[C@@H](CCC(N)=O)C(=O)N[C@@H](CCCNC(=N)N)C(=O)N[C@@H](Cc1ccc(O)cc1)C(N)=O)[C@@H](C)O` [Compound 30, Y-Aib-E-G-T-F-T-S-D-Y-S-I-Aib-L-E-K-Q-A-Q-Aib-E-F-V-R-H-L-I-N-K(1,3)-Aib-T-R-Q-R-Y-NH2.C18DA-gGlu-gGlu-gGlu-gGlu-gGlu-gGlu-gGlu-eLys(1,2)], the EC50 came out at 0.9 nM at hGLP1R (setting [2]) and 0.3 nM on hGIPR. Also, the solubility at 2 h in data set [1] is 4700 µg/mL.

A word on the solubility: it is how much of the substance goes into solution per volume.
